Results on 13 compounds are retold here after patent US9546150B2, “Substituted quinazolin-4-ones for inhibiting ubiquitin specific protease 7” (HYBRIGENICS SA, priority 2011, dated 2017).

For experiment [1], the target named is T1, USP7 (Homo sapiens, UniProt Q93009). The experiment in a line: USP7 activity assay, Ub-AMC substrate. Format: biochemical. The following applies: UbAMC substrate 300 nM, USP7 100 pM. Further details: Full-length wild-type human USP7 and its catalytic mutant; His tag (pFastBac-HT vector) (N); made in house; host or cells: Spodoptera frugiperda Sf9 (or High Five) insect cells, baculovirus. On the procedure: Bacmid DNA was prepared by an alkaline lysis procedure. The integrity of the bacmid minipreps and their orientation were checked by PCR, using generic and specific primers. Sf9 insect cells were cultured in InsectXpress medium (Cambrex) at 27° C. and transfected with the corresponding bacmid, using GeneShuttle 40 (Q-BIOgen). Viruses were recovered in the supernatant 72 h after transfection. Viruses were amplified by infecting insect cells (Sf9 or High Five cells; invitrogen) in 50 ml InsectXpress medium in a 150 cm^2 cell culture flask with 500 μl of the supernatant from transfected Sf9 cells. Following the second round of amplification, infected cells were recovered by rapid SDS lysis, boiled for 5 min at 100° C., sonicated briefly and centrifuged for 20 min at 14,000 g.
T1 sequence (Q93009 whole entry): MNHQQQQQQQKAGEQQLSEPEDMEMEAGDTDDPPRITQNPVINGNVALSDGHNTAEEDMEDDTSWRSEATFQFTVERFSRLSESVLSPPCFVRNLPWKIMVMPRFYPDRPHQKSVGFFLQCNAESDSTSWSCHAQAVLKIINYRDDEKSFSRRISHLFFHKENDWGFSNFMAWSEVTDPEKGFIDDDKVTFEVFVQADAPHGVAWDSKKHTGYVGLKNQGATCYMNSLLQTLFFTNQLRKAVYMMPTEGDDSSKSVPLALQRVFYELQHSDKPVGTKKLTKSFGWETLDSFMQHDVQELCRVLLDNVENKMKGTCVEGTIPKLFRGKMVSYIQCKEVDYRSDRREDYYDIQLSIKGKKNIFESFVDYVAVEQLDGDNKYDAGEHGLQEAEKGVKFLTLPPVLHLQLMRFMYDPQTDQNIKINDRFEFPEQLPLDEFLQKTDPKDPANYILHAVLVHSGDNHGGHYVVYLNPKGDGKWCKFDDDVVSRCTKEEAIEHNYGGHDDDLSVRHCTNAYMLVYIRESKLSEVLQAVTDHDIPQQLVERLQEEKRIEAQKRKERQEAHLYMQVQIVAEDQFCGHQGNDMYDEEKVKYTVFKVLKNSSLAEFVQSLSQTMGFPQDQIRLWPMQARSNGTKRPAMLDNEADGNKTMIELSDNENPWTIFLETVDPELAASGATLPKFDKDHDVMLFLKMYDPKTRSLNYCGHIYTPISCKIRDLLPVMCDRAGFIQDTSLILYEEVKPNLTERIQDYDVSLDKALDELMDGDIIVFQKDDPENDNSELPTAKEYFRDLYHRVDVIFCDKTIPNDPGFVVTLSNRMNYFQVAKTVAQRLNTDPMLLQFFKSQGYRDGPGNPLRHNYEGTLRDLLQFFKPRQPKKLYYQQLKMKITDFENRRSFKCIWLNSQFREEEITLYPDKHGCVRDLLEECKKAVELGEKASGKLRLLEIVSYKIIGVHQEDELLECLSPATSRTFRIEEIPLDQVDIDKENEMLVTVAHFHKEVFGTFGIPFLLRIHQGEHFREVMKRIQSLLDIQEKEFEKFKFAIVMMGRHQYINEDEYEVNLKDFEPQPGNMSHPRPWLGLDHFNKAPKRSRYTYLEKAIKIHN
USP7 was diluted in USP buffer (50 mM Tris HCl; 0.5 mM EDTA (Ethylenediaminetetraacetic acid); 5 mM DTT; 0.01% Triton X-100; Bovine Serum Albumin 0.05 mg·ml^−1 pH7.6). Compounds stocks (10 mM) were stored at −20° C. in DMSO.
Reactions were performed as duplicates in Black 384 well plates (small volumes microplates; Greiner; 10 μl final reaction volume). […] The concentrations of the enzyme (USP7) in specificity assays was 100 pM. The concentrations were determined in order to perform specificity assays under initial velocities at fixed substrate concentration. Compounds were pre-incubated with enzymes for 30 minutes at 25° C. Reactions were initiated by addition of substrate to the plates containing the enzymes (+/− compounds) diluted in assay buffer. Reactions were incubated for 60 minutes at 37° C. Reactions were stopped by adding acetic acid (100 mM final). Readings were performed on a Pherastar Fluorescent Reader (BMG). λ Emission […].

For experiment [2], the system named is HCT116 colon cancer cells. Kind of experiment: HCT116 cell viability and proliferation assay (MTS). Format: cell-based. The following applies: Homo sapiens, HCT-116, HCT116, 72 hours, read-out: Cell viability (MTS): HCT116 GI50 Day 3. Here is the method: HCT116 colon cancer cells were obtained from ATCC (American Type Culture Collection), and maintained in Mc Coy's 5A medium containing 10% FBS, 3 mM glutamine and 1% penicillin/streptomycin. Cells were incubated at 37° C. in a humidified atmosphere containing 5% CO2.
Cell viability was assayed using the MTS technique in 96-well culture plates (CellTiter 96® Aqueous Non-Radioactive Cell Proliferation Assay, Promega) according to the manufacturer's instructions. MTS (3-(4,5-dimethyl-thiazol-2-yl)-5-(3-carboxy-methoxyphenyl)-2-(4-sulfophenyl)-2H-tetra-zolium) is a MTT-derived tetrazolium that is reduced in metabolically active cells into a soluble, cell-permeant formazan. The amount of formazan, detected by its absorbance at 492 nm is proportional to the number of living, metabolically active cells.
10^3 HCT116 cells were seeded per well. 24 hours later, the medium was changed and the cells treated in triplicate with the concentrations of each compound from 100 μM to 50 nM. The compounds were diluted in 100% DMSO, whose final concentration on cells was kept at 0.5%.
Cells were incubated with the compounds for 72 hours, and their viability then assayed by the addition of MTS for 2 hours. Absorbance at 492 nm was measured directly from the 96-well culture plates. GI50 (Growth Inhibition 50) concentrations for each compound were calculated using a sigmoidal variable slope fit (Prism 4.0, Graphpad Softwares). Values represent mean of three independent experiments.

The target of experiment [3] is T1, USP7. The experiment in a line: Direct binding to USP7 by ESI-MS. The following applies: 50/50/1 H2O/CH3CN/HCOOH, Vc=120 V, Pi=4 mbar.
For experiment [4], the target named is T1, USP7. The experiment in a line: HAUbVS competition assay in HEK293 cell lysates, USP7. Format: biochemical. The following applies: for blocking of HAUbVS labeling of USP7 (anti-USP7 antibody): HEK293 cell lysates, 12.5-200 μM, dose-dependent; for anti-HA immunoblot band at the size corresponding to HA-Ub-VS-USP7: lysed HEK293 cells, different doses, no change of the other bands. A general note: A western blot detects proteins with antibodies after separation by electrophoresis.

The target of experiment [5] is T2, UCH-L3 (Homo sapiens, UniProt P15374).
T2 sequence (P15374 1-230): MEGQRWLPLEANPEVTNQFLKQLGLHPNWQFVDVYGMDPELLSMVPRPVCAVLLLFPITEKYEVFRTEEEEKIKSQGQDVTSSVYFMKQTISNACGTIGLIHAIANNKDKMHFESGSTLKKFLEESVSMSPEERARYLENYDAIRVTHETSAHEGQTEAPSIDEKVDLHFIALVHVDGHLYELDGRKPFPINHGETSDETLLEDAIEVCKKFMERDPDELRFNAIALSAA
Kind of experiment: HAUbVS competition assay in HEK293 cell lysates, UCH-L3. Format: biochemical. The following applies: 12.5-200 μM.

Broadly, the IC50 is the concentration at which inhibition is half-maximal. In experiment [1], `COc1ccccc1CCC(=O)N1CCC(O)(Cn2cnc3ccccc3c2=O)CC1` [Example 10, 3-({4-hydroxy-1-[3-(2-methoxyphenyl)propanoyl]piperidin-4-yl}methyl)-3,4-dihydroquinazolin-4-one] returned an IC50 of 261 µM.

`CCC(CC)C(=O)N1CCC(O)(Cn2cnc3cc(Cl)ccc3c2=O)CC1` [Example 9, 7-chloro-3-{[1-(2-ethylbutanoyl)-4-hydroxypiperidin-4-yl]methyl}-3,4-dihydroquinazolin-4-one] yielded a concentration for half-maximal inhibition (IC50) in experiment [1] of 155 µM.

The term GI50 denotes the concentration that inhibits growth by half. In the case of `CC(Cc1cccs1)C(=O)N1CCC(O)(Cn2cnc3cc(Cl)ccc3c2=O)CC1` (centres unmarked) [Example 11, 7-chloro-3-({4-hydroxy-1-[2-methyl-3-(thiophen-2-yl)propanoyl]piperidin-4-yl}methyl)-3,4-dihydroquinazolin-4-one], the 50% growth inhibitory concentration (GI50) in experiment [2] was 25 µM. The compound also had an IC50 in experiment [1] of 40 µM.

As to `CC(Cc1ccccc1)C(=O)N1CCC(O)(Cn2cnc3cc(Cl)ccc3c2=O)CC1` (centres unmarked) [Example 14, 3-{[1-(2-benzylpropanoyl)-4-hydroxypiperidin-4-yl]methyl}-7-chloro-3,4-dihydroquinazolin-4-one], the GI50 in experiment [2] is 28 µM. The compound also gave an IC50 in experiment [1] of 24 µM.

For the compound `CC(C)C(=O)N1CCC(O)(Cn2cnc3ccccc3c2=O)CC1` [Example 6, 3-{[4-hydroxy-1-(2-methylpropanoyl)piperidin-4-yl]methyl}-3,4-dihydroquinazolin-4-one], in experiment [1], the IC50 is 156 µM.

Take `O=C(CCc1ccccc1)N1CCC(O)(Cn2cnc3ccccc3c2=O)CC1` [Example 1, 3-{[4-hydroxy-1-(3-phenylpropanoyl)piperidin-4-yl]methyl}-3,4-dihydroquinazolin-4-one]: in experiment [2], the concentration for 50% growth inhibition (GI50) is more than 500 µM. Also, the “binding to USP7 under dissociating conditions” value (“binding to USP7” for short) in experiment [3] is on record as “no binding was observed”. Moreover, it took 69 µM to reach half-maximal inhibition in experiment [1] (IC50).

Regarding `CC(Cc1ccccc1)C(=O)N1CCC(O)(Cn2cnc3ccccc3c2=O)CC1` (centres unmarked) [Example 13, 3-{[1-(2-benzylpropanoyl)-4-hydroxypiperidin-4-yl]methyl}-3,4-dihydroquinazolin-4-one], the GI50 in experiment [2] came to 103 µM.

For the compound `O=C(CCC1CCCC1)N1CCC(O)(Cn2cnc3ccccc3c2=O)CC1` [Example 3, 3-{[1-(3-cyclopentylpropanoyl)-4-hydroxypiperidin-4-yl]methyl}-3,4-dihydroquinazolin-4-one], the GI50 in experiment [2] is 93 µM. Besides, the “binding to USP7” value in experiment [3] was “no binding was observed”. For the same compound, in experiment [1], the midpoint of inhibition, the IC50, lay at 100 µM.

Consider `CC(Cc1cccs1)C(=O)N1CCC(O)(Cn2cnc3ccccc3c2=O)CC1` (centres unmarked) [Example 5, 3-({4-hydroxy-1-[2-methyl-3-(thiophen-2-yl)propanoyl]piperidin-4-yl}methyl)-3,4-dihydroquinazolin-4-one], for which, in experiment [2], the GI50 came to 113 µM. In addition, in experiment [4], the “blocking of HAUbVS labeling of USP7 (anti-USP7 antibody)” value was “efficiently blocked labeling of USP7” and the “anti-HA immunoblot band at the size corresponding to HA-Ub-VS-USP7” value is “almost completely eliminated”. The “blocking of HAUbVS labeling of UCH-L3” value in experiment [5] is recorded as “without any cross-reaction”. For the same compound, the “binding to USP7” value in experiment [3] was “no binding was observed”. In addition, the IC50 in experiment [1] was found to be 37 µM.

For the compound `COc1cc2ncn(CC3(O)CCN(C(=O)C(C)C)CC3)c(=O)c2cc1OC` [Example 7, 3-{[4-hydroxy-1-(2-methylpropanoyl)piperidin-4-yl]methyl}-6,7-dimethoxy-3,4-dihydroquinazolin-4-one], the GI50 in experiment [2] was more than 500 µM. The IC50 in experiment [1] amounted to 90 µM.

With `O=C(CCc1cccs1)N1CCC(O)(Cn2cnc3ccccc3c2=O)CC1` [Example 12, 3-({4-hydroxy-1-[3-(thiophen-2-yl)propanoyl]piperidin-4-yl}methyl)-3,4-dihydroquinazolin-4-one], the GI50 in experiment [2] was 253 µM. For the same compound, the IC50 in experiment [1] stood at 70 µM.

Take `O=C(CCc1ccccc1)N1CCC(O)(Cn2cnc3cc(Cl)ccc3c2=O)CC1` [Example 2, 7-chloro-3-{[4-hydroxy-1-(3-phenylpropanoyl)piperidin-4-yl]methyl}-3,4-dihydroquinazolin-4-one]: the GI50 in experiment [2] was determined as 67 µM. In addition, in experiment [4], the “blocking of HAUbVS labeling of USP7 (anti-USP7 antibody)” value is listed as “efficiently blocked labeling of USP7” and the “anti-HA immunoblot band at the size corresponding to HA-Ub-VS-USP7” value was “almost completely eliminated”. Also, in experiment [5], the “blocking of HAUbVS labeling of UCH-L3” value is on record as “without any cross-reaction”. For the same compound, the “binding to USP7” value in experiment [3] was “no binding was observed”. This compound also displayed an IC50 in experiment [1] of 33 µM.

For the compound `O=C(CCC1CCCC1)N1CCC(O)(Cn2cnc3cc(Cl)ccc3c2=O)CC1` [Example 4, 7-chloro-3-{[1-(3-cyclopentylpropanoyl)-4-hydroxypiperidin-4-yl]methyl}-3,4-dihydroquinazolin-4-one], the GI50 in experiment [2] is 19 µM. The compound further came in with an IC50 in experiment [1] of 54 µM.
